Laboratory results: patent US10131652B2, “Pyrimidinyloxy benzene derivatives as herbicides” (E. I. DU PONT DE NEMOURS AND COMPANY, priority 2014, dated 2018)
Read-outs that look alike come from different tables or passages of the source.

Key:
Format in all cases: in vivo
[1] = tested on: small-flower umbrella sedge (Cyperus difformis); assay: Test C flooded paddy test plant response; conditions: Cyperus difformis; Flood, 250 g ai/ha; scale of 0 to 100 where 0 is no effect and 100 is complete control; 13 to 15 days; read-out: Sedge, Umbrella plant response rating
Method in brief: (§1)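 Readout is a visual 0–100 score (100 = complete control) versus controls at 13–15 days. Plants at 2-leaf stage, flooded to 3 cm, treated through paddy water.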

rice (Oryza sativa) = assay: Test C flooded paddy test plant response; conditions: Oryza sativa; Flood, 250 g ai/ha; scale of 0 to 100 where 0 is no effect and 100 is complete control; 13 to 15 days; read-out: Rice plant response rating
Method in brief: as §1

[2] = tested on: barnyardgrass (Echinochloa crus-galli); assay: Test C flooded paddy test plant response; conditions: Echinochloa crus-galli; Flood, 250 g ai/ha; scale of 0 to 100 where 0 is no effect and 100 is complete control; 13 to 15 days; read-out: Barnyardgrass plant response rating
Method in brief: as §1

[3] = tested on: ducksalad (Heteranthera limosa); assay: Test C flooded paddy test plant response; conditions: Heteranthera limosa; Flood, 250 g ai/ha; scale of 0 to 100 where 0 is no effect and 100 is complete control; 13 to 15 days; read-out: Ducksalad plant response rating
Method in brief: as §1

[4] = tested on: wheat (Triticum aestivum); assay: Test B pre-/postemergence plant response; conditions: Triticum aestivum, 240 h, read-out: Plant response rating, Wheat; for plant injury at 125 g/ha: 125 g ai/ha; for plant injury at 500 g/ha: 500 g ai/ha; for plant injury at 1000 g/ha: 1000 g ai/ha
Method in brief: (§2)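 Steps: plant seeds in loam soil–sand mix; spray soil preemergence, and in parallel spray 2–10 cm one- to two-leaf plants postemergence; hold ~10 days in greenhouse; visually rate injury against untreated controls (0 = no effect, 100 = complete control).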

[5] = tested on: giant foxtail (Setaria faberii); assay: Test B pre-/postemergence plant response; conditions: Setaria faberi, 240 h, read-out: Plant response rating, Foxtail, Giant; for pest or weed control at 125 g/ha: 125 g ai/ha; for pest or weed control at 500 g/ha: 500 g ai/ha; for pest or weed control at 1000 g/ha: 1000 g ai/ha
Method in brief: as §2

[6] = tested on: barnyardgrass (Echinochloa crus-galli); assay: Test B pre-/postemergence plant response; conditions: Echinochloa crus-galli, 240 h, read-out: Plant response rating, Barnyardgrass; for pest or weed control at 125 g/ha: 125 g ai/ha; for pest or weed control at 500 g/ha: 500 g ai/ha; for pest or weed control at 1000 g/ha: 1000 g ai/ha
Method in brief: as §2

[7] = tested on: pigweed (Amaranthus retroflexus); assay: Test B pre-/postemergence plant response; conditions: Amaranthus retroflexus, 240 h, read-out: Plant response rating, Pigweed; for pest or weed control at 125 g/ha: 125 g ai/ha; for pest or weed control at 500 g/ha: 500 g ai/ha; for pest or weed control at 1000 g/ha: 1000 g ai/ha
Method in brief: as §2

corn (Zea mays) = assay: Test B pre-/postemergence plant response; conditions: Zea mays, 240 h; for Corn plant response rating (crop injury, 0 = no effect, 100 = complete kill) at 125 g/ha: 125 g ai/ha; for Corn plant response rating (crop injury, 0 = no effect, 100 = complete kill) at 500 g/ha: 500 g ai/ha; for Corn plant response rating (crop injury, 0 = no effect, 100 = complete kill) at 1000 g/ha: 1000 g ai/ha
Method in brief: as §2

[8] = post-emergence, postemergence, 0 to 100 scale, 0 no effect, 100 complete control
[9] = post-emergence, Postemergence, 0 to 100 scale (0 no effect, 100 complete control)
[10] = pre-emergence, Preemergence, 0 to 100 scale where 0 is no effect and 100 is complete control
[11] = pre-emergence, Preemergence, 0 to 100 scale (0 no effect, 100 complete control)

SMILES | pest or weed control at 250 g/ha [1] [%] | plant injury at 250 g/ha (rice (Oryza sativa)) [%] | pest or weed control at 250 g/ha [2] [%] | pest or weed control at 250 g/ha [3] [%] | plant injury at 125 g/ha [4, 8] [%] | plant injury at 500 g/ha [4, 9] [%] | plant injury at 125 g/ha [4, 10] [%] | pest or weed control at 125 g/ha [5, 8] [%] | pest or weed control at 500 g/ha [5, 9] [%] | pest or weed control at 125 g/ha [5, 10] [%] | pest or weed control at 125 g/ha [6, 8] [%] | pest or weed control at 500 g/ha [6, 9] [%] | pest or weed control at 125 g/ha [6, 10] [%] | pest or weed control at 125 g/ha [7, 8] [%] | pest or weed control at 500 g/ha [7, 9] [%] | pest or weed control at 125 g/ha [7, 10] [%] | Corn plant response rating (crop injury, 0 = no effect, 100 = complete kill) at 125 g/ha (corn (Zea mays); [8]) [%] | Corn plant response rating (crop injury, 0 = no effect, 100 = complete kill) at 500 g/ha (corn (Zea mays); [9]) [%] | Corn plant response rating (crop injury, 0 = no effect, 100 = complete kill) at 125 g/ha (corn (Zea mays); [10]) [%] | also measured
Clc1ccc(-c2c(Cl)cccc2Oc2ncc(Cl)cn2)nc1 [Compound 23, 5-chloro-2-[3-chloro-2-(5-chloro-2-pyridinyl)phenoxy]pyrimidine] | 40 | 0 | 0 | 60 | 0 | 0 | 0 | 10 | 70 | 20 | 0 | 50 | 0 | 70 | 100 | 50 | 10 | 20 | 0 | plant injury at 1000 g/ha [4, 9]: 0%; plant injury at 500 g/ha [4, 11]: 0%; plant injury at 1000 g/ha [4, 11]: 0%; pest or weed control at 1000 g/ha [5, 9]: 70%; pest or weed control at 500 g/ha [5, 11]: 70%; pest or weed control at 1000 g/ha [5, 11]: 100%; pest or weed control at 1000 g/ha [6, 9]: 50%; pest or weed control at 500 g/ha [6, 11]: 30%; pest or weed control at 1000 g/ha [6, 11]: 40%; pest or weed control at 1000 g/ha [7, 9]: 100%; pest or weed control at 500 g/ha [7, 11]: 90%; pest or weed control at 1000 g/ha [7, 11]: 100%; Corn plant response rating (crop injury, 0 = no effect, 100 = complete kill) at 1000 g/ha (corn (Zea mays); [9]): 20%; Corn plant response rating (crop injury, 0 = no effect, 100 = complete kill) at 500 g/ha (corn (Zea mays); [11]): 0%; Corn plant response rating (crop injury, 0 = no effect, 100 = complete kill) at 1000 g/ha (corn (Zea mays); [11]): 0%
FC(F)(F)c1ccc(-c2ccccc2Oc2ncc(Cl)cn2)nc1 [Compound 27, 5-chloro-2-[2-[5-(trifluoromethyl)-2-pyridinyl]phenoxy]pyrimidine] | 40 | 0 | 0 | 30 | 0 | 0 | 0 | 20 | 70 | 60 | 20 | 50 | 10 | 50 | 100 | 80 | 0 | 30 | 0 | plant injury at 500 g/ha [4, 10]: 0%; pest or weed control at 500 g/ha [5, 10]: 90%; pest or weed control at 500 g/ha [6, 10]: 80%; pest or weed control at 500 g/ha [7, 10]: 100%; Corn plant response rating (crop injury, 0 = no effect, 100 = complete kill) at 500 g/ha (corn (Zea mays); [10]): 0%
